# Reference: US7018659B2, “Anti-arrhythmic pharmaceutical composition and a process thereof” (Council of Scientific & Industrial Research, priority 2002, dated 2006)
# Columns and labels:
# [1] = system: isolated guineapig auricle; assay: Aconitine-induced arrhythmia in isolated guineapig auricle; details: aconitine 15 ng/ml
# Experimental: Isolated guineapig auricle was prepared after Burn J H (1952). Aconitine (15 ng/ml) when added, set up arrhythmia within (40±5) mins. This novel compound (5 ng/ml) could revert arrhythmia to normal within (45±4.2) mins. The normal functioning state was maintained, observed up to 6 hrs. Again, arrhythmia was set in isolated auricle with 2.25 mM CaCl2. Arrhythmia was reverted to normal with the novel compound (5 ng/ml) within (30±3.36) mins of observation.
# male Wister albino rats = assay: Electrocardiograph studies (hypodynamic heart), aconitine-induced arrhythmia in anaesthetized rats; type: in vivo; details: aconitine 50 μg/100 g infused through the jugular vein
# Experimental: Electrocardiograph studies were conducted on urethane (1.75 g/kg, i.p) anaesthetized male Wister albino rats (150±10 g). Recordings were obtained in lead II. Aconitine (50 μg/100 g) was infused through the jugular vein and arrhythmia was induced within 30±5 mins.
smiles,measurement,setting,value
CCN1C[C@]2(COC)[C@H](O)C[C@H](OC)[C@@]34[C@@H]5C[C@@]6(O)[C@H](OC(=O)c7ccccc7)[C@@H]5[C@@](OC(C)=O)([C@@H]([C@H](OC)[C@H]23)[C@@H]14)[C@@H](O)[C@@H]6OC [Aconitine],time to set up arrhythmia,[1],≤ 40 ± 5 min
same,time to induction of arrhythmia,male Wister albino rats,≤ 30 ± 5 min
